In this assay the test system is P. falciparum K1 (strain resistant to chloroquine and pyrimethamine), erythrocytic stages. Description: Plasmodium falciparum in vitro assay, [3H] hypoxanthine incorporation. It is filed as cell-based. As to conditions: Plasmodium falciparum, K1, P. falciparum strain K1; [3H] hypoxanthine incorporation; read-out: IC50 (nM) on K1. In a few lines:
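Chloroquine/pyrimethamine-resistant K1 erythrocytic cultures (2.5% haematocrit, 0.3% parasitaemia, hypoxanthine-free RPMI with Albumax) exposed to seven doubling dilutions at 37 °C under low O2.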

In the case of `CN(CCN(C)C(=O)[C@H](Cc1ccccc1)N(Cc1ccc(-c2ccccn2)cc1)C(=O)C=Cc1ccc(C(F)(F)F)cc1)Cc1ccc(C(F)(F)F)nc1` [Example 230, (S)-N-[1-(Methyl-{2-[methyl-(6-trifluoromethyl-pyridin-3-ylmethyl)-amino]-ethyl}-carbamoyl)-2-phenyl-ethyl]-N-(4-pyridin-2-yl-benzyl)-3-(4-trifluoromethyl-phenyl)-acrylamide], the IC50 (as a rule, the concentration at which inhibition is half-maximal) was found to be 10 nM.
`CN(CCN(C)C(=O)[C@H](Cc1ccccc1)N(Cc1ccc(-c2ccccn2)cc1)C(=O)C=Cc1ccc(C(F)(F)F)cc1)Cc1cccnc1` [Example 231, (S)-N-(1-{Methyl-[2-(methyl-pyridin-3-ylmethyl-amino)-ethyl]-carbamoyl}-2-phenyl-ethyl)-N-(4-pyridin-2-yl-benzyl)-3-(4-trifluoromethyl-phenyl)-acrylamide]: the IC50 is 30 nM.
`CN(CCN(C)C(=O)[C@H](Cc1ccccc1)N(Cc1ccc(-c2ccccn2)cc1)C(=O)C=Cc1ccc(C(F)(F)F)cc1)Cc1ccsc1` [Example 232, (S)-N-(1-{Methyl-[2-(methyl-thiophen-3-ylmethyl-amino)-ethyl]-carbamoyl}-2-phenyl-ethyl)-N-(4-pyridin-2-yl-benzyl)-3-(4-trifluoromethyl-phenyl)-acrylamide]: the IC50 amounted to 33 nM.
Take `Cc1ccccc1CN(C)CCN(C)C(=O)[C@H](Cc1ccccc1)N(Cc1ccc(-c2ccccn2)cc1)C(=O)C=Cc1ccc(C(F)(F)F)cc1` [Example 233, (S)-N-[1-(Methyl-{2-[methyl-(2-methyl-benzyl)-amino]-ethyl}-carbamoyl)-2-phenyl-ethyl]-N-(4-pyridin-2-yl-benzyl)-3-(4-trifluoromethyl-phenyl)-acrylamide]: the IC50 worked out at 53 nM.
With `Cc1ccc(CN(C)CCN(C)C(=O)[C@H](Cc2ccccc2)N(Cc2ccc(-c3ccccn3)cc2)C(=O)C=Cc2ccc(C(F)(F)F)cc2)c(C)c1` [Example 234, (S)-N-[1-({2-[(2,4-Dimethyl-benzyl)-methyl-amino]-ethyl}-methyl-carbamoyl)-2-phenyl-ethyl]-N-(4-pyridin-2-yl-benzyl)-3-(4-trifluoromethyl-phenyl)-acrylamide], the IC50 stood at 64 nM.
On to `COc1cc(CN(C)CCN(C)C(=O)[C@H](Cc2ccccc2)N(Cc2ccc(N3CCOCC3)cc2)C(=O)C=Cc2ccc(C(F)(F)F)cc2)cc(OC)c1` [Example 235, (S)-N-[1-({2-[(3,5-Dimethoxy-benzyl)-methyl-amino]-ethyl}-methyl-carbamoyl)-2-phenyl-ethyl]-N-(4-morpholin-4-yl-benzyl)-3-(4-trifluoromethyl-phenyl)-acrylamide], for which the IC50 came to 58 nM.
Consider `COc1cc(CN(C)CCN(C)C(=O)[C@H](Cc2ccccc2)N(Cc2ccc(N3CCN(C(C)=O)CC3)cc2)C(=O)C=Cc2ccc(C(F)(F)F)cc2)cc(OC)c1` [Example 236, (S)-N-[4-(4-Acetyl-piperazin-1-yl)-benzyl]-N-[1-({2-[(3,5-dimethoxy-benzyl)-methyl-amino]-ethyl}-methyl-carbamoyl)-2-phenyl-ethyl]-3-(4-trifluoromethyl-phenyl)-acrylamide], for which the IC50 worked out at 68 nM.
For `CC(=O)N1CCN(c2ccc(CN(C(=O)C=Cc3ccc(C(F)(F)F)cc3)[C@@H](Cc3ccccc3)C(=O)N(C)CCN(C)Cc3ccc(N(C)CCO)cc3)cc2)CC1` [Example 237, (S)-N-[4-(4-Acetyl-piperazin-1-yl)-benzyl]-N-(1-{[2-({4-[(2-hydroxy-ethyl)-methyl-amino]-benzyl}-methyl-amino)-ethyl]-methyl-carbamoyl}-2-phenyl-ethyl)-3-(4-trifluoromethyl-phenyl)-acrylamide], the IC50 was found to be 55 nM.
With `CC(=O)N1CCN(c2ccc(CN(C(=O)C=Cc3ccc(C(F)(F)F)cc3)[C@@H](Cc3ccccc3)C(=O)N(C)CCN(C)Cc3ccc(O)cc3)cc2)CC1` [Example 238, (S)-N-[4-(4-Acetyl-piperazin-1-yl)-benzyl]-N-[1-({2-[(4-hydroxy-benzyl)-methyl-amino]-ethyl}-methyl-carbamoyl)-2-phenyl-ethyl]-3-(4-trifluoromethyl-phenyl)-acrylamide], the IC50 is 27 nM.
For the molecule `CCN(CC)c1ccc(CN(C)CCN(C)C(=O)[C@H](Cc2ccccc2)N(Cc2ccc(N3CCN(C(C)=O)CC3)cc2)C(=O)C=Cc2ccc(C(F)(F)F)cc2)cc1` [Example 239, (S)-N-[4-(4-Acetyl-piperazin-1-yl)-benzyl]-N-[1-({2-[(4-diethylamino-benzyl)-methyl-amino]-ethyl}-methyl-carbamoyl)-2-phenyl-ethyl]-3-(4-trifluoromethyl-phenyl)-acrylamide], the IC50 turned out to be 61 nM.
Turning to `CC(=O)N1CCN(c2ccc(CN(C(=O)C=Cc3ccc(C(F)(F)F)cc3)[C@@H](Cc3ccccc3)C(=O)N(C)CCN(C)Cc3cccc(O)c3)cc2)CC1` [Example 240, (S)-N-[4-(4-Acetyl-piperazin-1-yl)-benzyl]-N-[1-({2-[(3-hydroxy-benzyl)-methyl-amino]-ethyl}-methyl-carbamoyl)-2-phenyl-ethyl]-3-(4-trifluoromethyl-phenyl)-acrylamide], the IC50 was 28 nM.
The same measure for `CC(=O)N1CCN(c2ccc(CN(C(=O)C=Cc3ccc(C(F)(F)F)cc3)[C@@H](Cc3ccccc3)C(=O)N(C)CCN(C)Cc3cccnc3)cc2)CC1` [Example 241, (S)-N-[4-(4-Acetyl-piperazin-1-yl)-benzyl]-N-(1-{methyl-[2-(methyl-pyridin-3-ylmethyl-amino)-ethyl]-carbamoyl}-2-phenyl-ethyl)-3-(4-trifluoromethyl-phenyl)-acrylamide]: 27 nM; for `CC(=O)N1CCN(c2ccc(CN(C(=O)C=Cc3ccc(C(F)(F)F)cc3)[C@@H](Cc3ccccc3)C(=O)N(C)CCN(C)Cc3cccc(OCCO)c3)cc2)CC1` [Example 242, (S)-N-[4-(4-Acetyl-piperazin-1-yl)-benzyl]-N-{1-[(2-{[3-(2-hydroxy-ethoxy)-benzyl]-methyl-amino}-ethyl)-methyl-carbamoyl]-2-phenyl-ethyl}-3-(4-trifluoromethyl-phenyl)-acrylamide]: 14 nM.
The same measure for `CC(=O)N1CCN(c2ccc(CN(C(=O)C=Cc3ccc(C(F)(F)F)cc3)[C@@H](Cc3ccccc3)C(=O)N(C)CCN(C)Cc3cccc(C#N)c3)cc2)CC1` [Example 243, (S)-N-[4-(4-Acetyl-piperazin-1-yl)-benzyl]-N-[1-({2-[(3-cyano-benzyl)-methyl-amino]-ethyl}-methyl-carbamoyl)-2-phenyl-ethyl]-3-(4-trifluoromethyl-phenyl)-acrylamide]: 52 nM; for `CC(=O)N1CCN(c2ccc(CN(C(=O)C=Cc3ccc(C(F)(F)F)cc3)[C@@H](Cc3ccccc3)C(=O)N(C)CCN(C)Cc3ccc(OC(C)C)cc3)cc2)CC1` [Example 244, (S)-N-[4-(4-Acetyl-piperazin-1-yl)-benzyl]-N-[1-({2-[(4-isopropoxy-benzyl)-methyl-amino]-ethyl}-methyl-carbamoyl)-2-phenyl-ethyl]-3-(4-trifluoromethyl-phenyl)-acrylamide]: 19 nM.
Regarding `CC(=O)N1CCN(c2ccc(CN(C(=O)C=Cc3ccc(C(F)(F)F)cc3)[C@@H](Cc3ccccc3)C(=O)N(C)CCN(C)Cc3ccc4c(c3)OCCN4C)cc2)CC1` [Example 245, (S)-N-[4-(4-Acetyl-piperazin-1-yl)-benzyl]-N-[1-(methyl-{2-[methyl-(4-methyl-3,4-dihydro-2H-benzo[1,4]oxazin-7-ylmethyl)-amino]-ethyl}-carbamoyl)-2-phenyl-ethyl]-3-(4-trifluoromethyl-phenyl)-acrylamide], the 50% inhibitory concentration (IC50) was 87 nM.
Take `CC(=O)N1CCN(c2ccc(CN(C(=O)C=Cc3ccc(C(F)(F)F)cc3)[C@@H](Cc3ccccc3)C(=O)N(C)CCN(C)Cc3ccc(OCCCN(C)C)cc3)cc2)CC1` [Example 246, (S)-N-[4-(4-Acetyl-piperazin-1-yl)-benzyl]-N-{1-[(2-{[4-(3-dimethylamino-propoxy)-benzyl]-methyl-amino}-ethyl)-methyl-carbamoyl]-2-phenyl-ethyl}-3-(4-trifluoromethyl-phenyl)-acrylamide]: the IC50 amounted to 64 nM.
For the molecule `COc1ccc(CN(C)CCN(C)C(=O)[C@H](Cc2ccccc2)N(Cc2ccc(N3CCN(C(C)=O)CC3)cc2)C(=O)C=Cc2ccc(C(F)(F)F)cc2)cn1` [Example 247, (S)-N-[4-(4-Acetyl-piperazin-1-yl)-benzyl]-N-[1-({2-[(6-methoxy-pyridin-3-ylmethyl)-methyl-amino]-ethyl}-methyl-carbamoyl)-2-phenyl-ethyl]-3-(4-trifluoromethyl-phenyl)-acrylamide], the IC50 stood at 26 nM.
Take `CC(=O)N1CCN(c2ccc(CN(C(=O)C=Cc3ccc(C(F)(F)F)cc3)[C@@H](Cc3ccccc3)C(=O)N(C)CCN(C)Cc3nccs3)cc2)CC1` [Example 248, (S)-N-[4-(4-Acetyl-piperazin-1-yl)-benzyl]-N-(1-{methyl-[2-(methyl-thiazol-2-ylmethyl-amino)-ethyl]-carbamoyl}-2-phenyl-ethyl)-3-(4-trifluoromethyl-phenyl)-acrylamide]: the IC50 was 21 nM.
With `CC(=O)N1CCN(c2ccc(CN(C(=O)C=Cc3ccc(C(F)(F)F)cc3)[C@@H](Cc3ccccc3)C(=O)N(C)CCN(C)Cc3ccc4c(c3)OCO4)cc2)CC1` [Example 249, (S)-N-[4-(4-Acetyl-piperazin-1-yl)-benzyl]-N-(1-{[2-(benzo[1,3]dioxol-5-ylmethyl-methyl-amino)-ethyl]-methyl-carbamoyl}-2-phenyl-ethyl)-3-(4-trifluoromethyl-phenyl)-acrylamide] the figure was 39 nM; with `CC(=O)N1CCN(c2ccc(CN(C(=O)C=Cc3ccc(C(F)(F)F)cc3)[C@@H](Cc3ccccc3)C(=O)N(C)CCN(C)Cc3cncnc3)cc2)CC1` [Example 250, (S)-N-[4-(4-Acetyl-piperazin-1-yl)-benzyl]-N-(1-{methyl-[2-(methyl-pyrimidin-5-ylmethyl-amino)-ethyl]-carbamoyl}-2-phenyl-ethyl)-3-(4-trifluoromethyl-phenyl)-acrylamide], 27 nM.

Values taken from patent publication US20110224210A1, “NOVEL BIS-AMIDES AS ANTI-MALARIAL AGENTS” (priority 2008, published 2011).
